Broadly, the inhibition is the drop in the measured response relative to a control, in per cent. Broadly, the % Inhibition is the drop in the measured response relative to a control, in per cent. One may read the Cmax as the peak of the concentration-time curve. What is called Tmax is the time from dosing to the highest level. As usually defined, the half-life is the time in which the quantity being followed falls by half. Read a high half-life as slow loss. As a reminder, the pEC50 is −log10 of the EC50, conventionally taken in molar units. One may read the Emax as the maximal effect, on the per cent scale that the assay sets.

Here are results for two compounds from paper PMC11887051, “Discovery of ONO-2920632 (VU6011887): A Highly Selective and CNS Penetrant TREK-2 (TWIK-Related K+ Channel 2) Preferring Activator In Vivo Tool Compound” (ACS Chemical Neuroscience, 2025).

The target of one data set is Endothelin ETA (Homo sapiens, UniProt P25101). In words: Eurofins Lead Profiling radioligand binding. The following applies: title: 30 μM.
The next data set addresses Adrenergic α2A (Homo sapiens, UniProt P08913). In words: Eurofins Lead Profiling radioligand binding. The settings on record: title: 30 μM.
The subject of a further data set is Sodium Channel, Site 2. The data set is described as follows: Eurofins Lead Profiling radioligand binding. Set-up: species or system Rat. The settings on record: title: 30 μM.
A further data set can be described thus: rat PO PK study. The format is in vivo. The settings on record: male, Sprague-Dawley, 3 mg/kg PO. Here is the method: (§1) Plasma and brain tissue samples originating from in vivo studies were analyzed by electrospray ionization using an AB Sciex Q-TRAP 5500 (Foster City, CA) that was coupled to a Shimadzu LC-20AD pump (Columbia, MD) and a Leap Technologies CTC PAL auto-sampler (Carrboro, NC). Analytes were separated by gradient elution using a C18 column (3 x 50 mm, 3 mm; Fortis Technologies Ltd, Cheshire, UK) that was thermostated at 40 °C. HPLC mobile phase A was 0.1% formic acid in water (pH unadjusted); mobile phase B was 0.1% formic acid in acetonitrile (pH […]
min, with an isocratic hold for 0.5 min, before transitioning to 10% B over 0.05 min. The column was re-equilibrated (1 min) before the next sample injection. The total run time was 2.55 min, and the HPLC flow rate was 0.5 ml/min. The source temperature was set at 500 °C, and mass spectral analyses were performed using a Turbo-Ion spray source in positive ionization mode (5.0-kV spray voltage) and using multiple-reaction monitoring of transitions specific for the analytes. All data were analyzed using AB Sciex Analyst 1.5.1 software.
Brain plasma concentration ratio (Kp) was calculated by dividing brain concentration by plasma concentration for each animal. Unbound brain to unbound plasma concentration ratio (Kp,uu) is calculated using the following formula: Kp,uu = (Brain ng/g x brain fu)/(plasma ng/ml x plasma fu).
(§2) For determination of the plasma concentration-time profile, compounds were formulated in methyl cellulose and administered as a 3 mg/kg PO dose to male C57BL/6 mouse or SD rat (n = 2). For the same determination, compounds were formulated in HP-β-CD and administered as a 0.1 mg/kg IV dose to male beagle dog (n = 2).
(§3) Plasma samples originating from in vivo studies were analyzed by electrospray ionization using a Q-TRAP 5500 (AB Sciex) that was coupled to a Prominence UFLC XR (Shimadzu Corporation).
(§4) Analytes were separated by gradient elution using a Shim-pack XR-ODS II (2 x 75 mm, 2.2μm, Shimadzu Corporation) that was thermostated at 40 °C. HPLC mobile phase A was 5 mM ammonium acetate containing 0.2% formic acid in water (pH unadjusted); mobile phase B was […]
hold for 1.5 min, before transitioning to 10% B over 0.1 min. The column was re-equilibrated (0.9 min) before the next sample injection. The total run time was 4.0 min, and the HPLC flow rate was 0.5 ml/min. The source temperature was set at 600 °C, and mass spectral analyses were performed using a Turbo-Ion spray source in positive ionization mode and using multiple-reaction

In data set [1] the test system is GABAA, Flunitrazepam, Central. In words: Eurofins Lead Profiling radioligand binding. The following applies: title: 30 μM. Details: species or system Rat.
A short description of a further data set: dog IV PK study. The format is in vivo. The settings on record: male, beagle, plasma, 0.1 mg/kg IV, HP-β-CD solution. Here is the method:
as §1
min, with an isocratic hold for 0.5 min, before transitioning to 10% B over 0.05 min. The column was re-equilibrated (1 min) before the next sample injection. The total run time was 2.55 min, and the HPLC flow rate was 0.5 ml/min. The source temperature was set at 500 °C, and mass spectral analyses were performed using a Turbo-Ion spray source in positive ionization mode (5.0-kV spray voltage) and using multiple-reaction monitoring of transitions specific for the analytes. All data were analyzed using AB Sciex Analyst 1.5.1 software. […]
as §2, §3, §4
hold for 1.5 min, before transitioning to 10% B over 0.1 min. The column was re-equilibrated (0.9 min) before the next sample injection. The total run time was 4.0 min, and the HPLC flow rate was 0.5 ml/min. […]

A further data set has as its target Bradykinin B2 (Homo sapiens, UniProt P30411). The data set is described as follows: Eurofins Lead Profiling radioligand binding. The settings on record: title: 30 μM.
In data set [2] the test system is Purinergic P2Y, Non-Selective. The data set is described as follows: Eurofins Lead Profiling radioligand binding. Details: species or system Rat. The following applies: title: 30 μM.
For data set [3], the target named is Transporter, Dopamine (DAT) (Homo sapiens, UniProt Q01959). In words: Eurofins Lead Profiling radioligand binding. The following applies: title: 30 μM.
Another data set concerns the target Glucocorticoid (Homo sapiens, UniProt P04150). The data set is described as follows: Eurofins Lead Profiling radioligand binding. The settings on record: title: 30 μM.
The test system of the next data set is Thyroid Hormone. The data set is described as follows: Eurofins Lead Profiling radioligand binding. Set-up: species or system Rat. The settings on record: title: 30 μM.
For a further data set, the target named is Calcium Channel N-Type (Rattus norvegicus, UniProt Q02294). The data set is described as follows: Eurofins Lead Profiling radioligand binding. The settings on record: title: 30 μM.
For the next data set, the target named is Adenosine A1 (Homo sapiens, UniProt P30542). The data set is described as follows: Eurofins Lead Profiling radioligand binding. The settings on record: title: 30 μM.
For a further data set, the target named is Endothelin ETB (Homo sapiens, UniProt P24530). The data set is described as follows: Eurofins Lead Profiling radioligand binding. The settings on record: title: 30 μM.
A further data set concerns the target Estrogen ERα (Homo sapiens, UniProt P03372). In words: Eurofins Lead Profiling radioligand binding. The settings on record: title: 30 μM.
The target of another data set is GABAB1A (Homo sapiens, UniProt Q9UBS5). The data set is described as follows: Eurofins Lead Profiling radioligand binding. The settings on record: title: 30 μM.
Another data set concerns the target T1, TREK-2 (Homo sapiens, UniProt P57789).
T1 sequence (P57789 1-538): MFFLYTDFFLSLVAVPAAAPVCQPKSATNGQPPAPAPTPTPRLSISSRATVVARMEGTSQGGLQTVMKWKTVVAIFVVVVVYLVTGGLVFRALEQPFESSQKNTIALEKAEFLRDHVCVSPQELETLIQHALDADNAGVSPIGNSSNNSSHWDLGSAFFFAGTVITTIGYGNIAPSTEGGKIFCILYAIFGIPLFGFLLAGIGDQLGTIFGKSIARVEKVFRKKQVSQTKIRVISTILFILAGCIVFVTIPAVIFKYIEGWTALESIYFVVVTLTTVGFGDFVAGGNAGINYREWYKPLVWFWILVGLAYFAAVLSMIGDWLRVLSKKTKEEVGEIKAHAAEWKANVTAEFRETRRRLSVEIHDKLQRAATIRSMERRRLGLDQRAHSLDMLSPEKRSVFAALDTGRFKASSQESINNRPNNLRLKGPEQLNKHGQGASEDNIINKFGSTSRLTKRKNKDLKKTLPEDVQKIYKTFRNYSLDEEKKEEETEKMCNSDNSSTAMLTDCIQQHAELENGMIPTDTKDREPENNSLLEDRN
In words: human TREK-2 MPC assay. The format is cell-based. Set-up: expressed in transfected cells; host or cells: HEK293.

Molecules are shown by their SMILES. pEC50: −log10 of the molar value.

Chain of Endothelin ETA (P25101 21-427): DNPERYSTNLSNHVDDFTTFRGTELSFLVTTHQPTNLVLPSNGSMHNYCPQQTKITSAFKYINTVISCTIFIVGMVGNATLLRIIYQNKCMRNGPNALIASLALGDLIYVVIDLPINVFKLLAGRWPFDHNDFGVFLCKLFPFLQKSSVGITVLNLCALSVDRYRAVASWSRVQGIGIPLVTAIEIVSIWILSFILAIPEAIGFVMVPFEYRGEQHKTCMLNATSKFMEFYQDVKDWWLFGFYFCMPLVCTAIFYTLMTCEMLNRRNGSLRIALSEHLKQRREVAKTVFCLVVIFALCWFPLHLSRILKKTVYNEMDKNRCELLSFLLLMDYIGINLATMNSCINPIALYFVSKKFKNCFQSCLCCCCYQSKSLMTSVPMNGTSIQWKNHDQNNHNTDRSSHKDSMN
Chain of Transporter, Dopamine (DAT) (Q01959 whole entry): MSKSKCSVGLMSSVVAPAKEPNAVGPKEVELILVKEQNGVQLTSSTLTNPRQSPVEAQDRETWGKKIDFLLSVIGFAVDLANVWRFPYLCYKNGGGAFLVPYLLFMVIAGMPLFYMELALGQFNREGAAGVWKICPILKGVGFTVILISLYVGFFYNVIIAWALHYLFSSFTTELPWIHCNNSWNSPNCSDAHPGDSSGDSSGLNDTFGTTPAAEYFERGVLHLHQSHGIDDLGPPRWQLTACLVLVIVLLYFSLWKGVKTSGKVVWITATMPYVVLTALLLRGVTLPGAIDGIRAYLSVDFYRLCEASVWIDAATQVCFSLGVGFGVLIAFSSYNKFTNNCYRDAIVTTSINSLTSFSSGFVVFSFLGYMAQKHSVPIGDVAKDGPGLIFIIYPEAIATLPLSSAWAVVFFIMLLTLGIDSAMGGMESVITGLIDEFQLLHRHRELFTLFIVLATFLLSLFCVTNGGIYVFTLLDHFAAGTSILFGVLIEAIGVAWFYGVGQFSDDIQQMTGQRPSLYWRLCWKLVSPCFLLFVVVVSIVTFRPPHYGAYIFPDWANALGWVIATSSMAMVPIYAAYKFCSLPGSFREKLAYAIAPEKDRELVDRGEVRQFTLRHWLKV
Chain of Bradykinin B2 (P30411 whole entry): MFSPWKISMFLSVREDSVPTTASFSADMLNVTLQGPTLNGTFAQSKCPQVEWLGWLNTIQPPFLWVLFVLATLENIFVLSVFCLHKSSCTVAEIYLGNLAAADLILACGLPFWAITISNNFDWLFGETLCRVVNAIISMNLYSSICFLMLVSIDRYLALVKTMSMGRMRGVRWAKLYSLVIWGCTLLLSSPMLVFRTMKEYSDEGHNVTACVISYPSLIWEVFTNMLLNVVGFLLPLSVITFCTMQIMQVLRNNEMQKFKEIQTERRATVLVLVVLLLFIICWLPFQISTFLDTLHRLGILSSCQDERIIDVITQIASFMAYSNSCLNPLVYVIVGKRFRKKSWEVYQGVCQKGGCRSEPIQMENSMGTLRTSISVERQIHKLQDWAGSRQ
Chain of Glucocorticoid (P04150 whole entry): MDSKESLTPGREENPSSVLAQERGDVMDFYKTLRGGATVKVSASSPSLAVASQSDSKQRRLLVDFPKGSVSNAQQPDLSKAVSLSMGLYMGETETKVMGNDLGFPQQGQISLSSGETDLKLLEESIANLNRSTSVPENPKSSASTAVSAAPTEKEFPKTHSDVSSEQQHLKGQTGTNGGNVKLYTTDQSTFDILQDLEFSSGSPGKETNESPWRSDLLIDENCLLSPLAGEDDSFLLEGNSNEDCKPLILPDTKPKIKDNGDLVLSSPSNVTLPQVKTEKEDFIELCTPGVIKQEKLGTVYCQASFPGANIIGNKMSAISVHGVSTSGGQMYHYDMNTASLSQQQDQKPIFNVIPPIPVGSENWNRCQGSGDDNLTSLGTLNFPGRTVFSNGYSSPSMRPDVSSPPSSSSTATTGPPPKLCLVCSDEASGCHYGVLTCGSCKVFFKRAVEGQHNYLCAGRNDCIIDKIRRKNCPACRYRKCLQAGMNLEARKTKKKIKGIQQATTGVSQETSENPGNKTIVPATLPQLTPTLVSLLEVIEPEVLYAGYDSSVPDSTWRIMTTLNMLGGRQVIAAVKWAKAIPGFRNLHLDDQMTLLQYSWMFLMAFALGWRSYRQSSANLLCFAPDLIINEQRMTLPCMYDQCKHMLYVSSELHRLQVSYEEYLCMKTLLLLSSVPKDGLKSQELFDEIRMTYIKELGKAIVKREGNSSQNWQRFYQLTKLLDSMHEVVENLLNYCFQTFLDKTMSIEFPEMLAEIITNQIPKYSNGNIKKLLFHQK
Chain of GABAB1A (Q9UBS5 15-961 limits assumed): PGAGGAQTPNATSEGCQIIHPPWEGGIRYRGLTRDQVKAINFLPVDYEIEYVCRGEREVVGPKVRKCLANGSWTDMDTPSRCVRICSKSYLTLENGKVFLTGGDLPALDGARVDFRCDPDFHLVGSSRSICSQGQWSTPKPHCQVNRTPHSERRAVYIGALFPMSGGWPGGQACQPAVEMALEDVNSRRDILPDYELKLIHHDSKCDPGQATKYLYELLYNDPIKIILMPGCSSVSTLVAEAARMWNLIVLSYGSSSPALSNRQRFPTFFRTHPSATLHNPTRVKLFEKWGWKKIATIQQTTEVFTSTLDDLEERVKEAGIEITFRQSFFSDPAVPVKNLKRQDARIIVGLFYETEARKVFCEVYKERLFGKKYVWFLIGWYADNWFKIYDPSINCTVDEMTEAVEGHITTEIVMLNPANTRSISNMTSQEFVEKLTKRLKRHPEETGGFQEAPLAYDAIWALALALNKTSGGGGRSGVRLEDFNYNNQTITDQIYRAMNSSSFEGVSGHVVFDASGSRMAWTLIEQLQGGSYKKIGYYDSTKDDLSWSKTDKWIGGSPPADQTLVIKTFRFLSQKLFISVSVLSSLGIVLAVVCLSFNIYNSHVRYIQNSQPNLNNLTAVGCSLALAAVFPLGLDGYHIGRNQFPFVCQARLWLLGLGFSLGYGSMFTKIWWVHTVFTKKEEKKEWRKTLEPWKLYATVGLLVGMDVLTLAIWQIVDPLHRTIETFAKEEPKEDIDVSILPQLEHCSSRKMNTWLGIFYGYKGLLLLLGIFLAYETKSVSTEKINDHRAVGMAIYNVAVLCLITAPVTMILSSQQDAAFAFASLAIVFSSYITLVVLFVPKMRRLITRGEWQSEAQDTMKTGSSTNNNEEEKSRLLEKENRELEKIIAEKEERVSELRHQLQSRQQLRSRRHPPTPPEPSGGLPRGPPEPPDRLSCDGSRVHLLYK
Chain of Endothelin ETB (P24530 27-442): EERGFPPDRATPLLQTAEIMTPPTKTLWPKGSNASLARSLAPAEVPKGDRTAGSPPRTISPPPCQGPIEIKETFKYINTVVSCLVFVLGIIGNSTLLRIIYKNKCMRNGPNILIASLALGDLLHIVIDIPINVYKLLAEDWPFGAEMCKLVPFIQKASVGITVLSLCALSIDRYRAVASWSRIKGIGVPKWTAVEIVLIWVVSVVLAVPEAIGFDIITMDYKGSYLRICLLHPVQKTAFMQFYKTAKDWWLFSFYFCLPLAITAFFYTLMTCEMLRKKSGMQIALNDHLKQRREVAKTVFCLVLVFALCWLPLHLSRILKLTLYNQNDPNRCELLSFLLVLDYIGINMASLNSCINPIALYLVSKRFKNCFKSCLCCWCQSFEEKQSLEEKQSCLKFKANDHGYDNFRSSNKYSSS
Chain of Adenosine A1 (P30542 whole entry): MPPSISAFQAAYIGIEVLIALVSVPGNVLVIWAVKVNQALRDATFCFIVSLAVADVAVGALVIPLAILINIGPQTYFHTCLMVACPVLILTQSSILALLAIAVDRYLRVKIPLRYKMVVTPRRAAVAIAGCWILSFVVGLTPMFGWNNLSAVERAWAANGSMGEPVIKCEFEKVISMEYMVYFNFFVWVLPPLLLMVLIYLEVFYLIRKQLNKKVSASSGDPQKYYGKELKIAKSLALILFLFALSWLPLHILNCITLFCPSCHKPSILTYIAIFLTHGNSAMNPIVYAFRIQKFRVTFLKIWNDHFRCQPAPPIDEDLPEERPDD
Chain of Estrogen ERα (P03372 whole entry): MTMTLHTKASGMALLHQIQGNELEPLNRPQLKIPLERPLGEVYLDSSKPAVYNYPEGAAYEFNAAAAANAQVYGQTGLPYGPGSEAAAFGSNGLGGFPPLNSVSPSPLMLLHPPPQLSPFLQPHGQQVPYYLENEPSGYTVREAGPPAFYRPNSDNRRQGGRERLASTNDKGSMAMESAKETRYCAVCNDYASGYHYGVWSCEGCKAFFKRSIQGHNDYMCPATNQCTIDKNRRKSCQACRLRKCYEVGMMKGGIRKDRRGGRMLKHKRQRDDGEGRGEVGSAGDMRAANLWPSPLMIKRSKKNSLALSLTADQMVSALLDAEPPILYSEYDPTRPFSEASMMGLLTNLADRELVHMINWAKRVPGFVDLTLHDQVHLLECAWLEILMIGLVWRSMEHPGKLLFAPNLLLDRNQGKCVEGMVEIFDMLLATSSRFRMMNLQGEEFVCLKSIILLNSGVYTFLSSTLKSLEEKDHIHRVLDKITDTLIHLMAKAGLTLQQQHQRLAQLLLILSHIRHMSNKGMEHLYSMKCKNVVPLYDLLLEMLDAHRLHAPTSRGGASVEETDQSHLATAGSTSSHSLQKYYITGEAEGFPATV
Chain of Adrenergic α2A (P08913 whole entry): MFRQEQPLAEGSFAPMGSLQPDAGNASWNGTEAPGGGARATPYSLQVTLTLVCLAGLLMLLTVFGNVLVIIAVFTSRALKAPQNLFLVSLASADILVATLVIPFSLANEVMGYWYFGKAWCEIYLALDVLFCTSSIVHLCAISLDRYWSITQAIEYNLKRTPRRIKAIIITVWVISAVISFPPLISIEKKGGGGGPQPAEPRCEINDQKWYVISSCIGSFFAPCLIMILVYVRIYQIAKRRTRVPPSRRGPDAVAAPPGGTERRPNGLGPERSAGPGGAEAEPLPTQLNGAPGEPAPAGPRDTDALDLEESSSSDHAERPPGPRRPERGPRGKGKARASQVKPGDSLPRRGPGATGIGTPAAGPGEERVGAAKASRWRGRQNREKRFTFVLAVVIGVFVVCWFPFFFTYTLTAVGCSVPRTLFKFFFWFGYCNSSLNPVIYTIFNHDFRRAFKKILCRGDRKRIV

Consider `O=C(NCc1ccc(OC(F)(F)F)cc1F)c1ccc2ncnn2c1` [Compound 19b], for which the inhibition on Endothelin ETA is -3%; on Adrenergic α2A it was 3%; in data set [3] it was 14%; on Glucocorticoid, 7%; at Calcium Channel N-Type, -1%; on Adenosine A1, 14%. Further, the inhibition at Estrogen ERα is 1%; at GABAB1A, -1%. The “% Inhibition at 10 µM” value was 15% with Sodium Channel, Site 2; 0% in data set [1]; -7% in [2]; 9% with Thyroid Hormone. For the same compound, in the data set “rat PO PK study” (brain, 2 h, read-out: total brain concentration), the concentration at 2 h was found to be 2680 nM. In addition, the concentration at 24 h in “rat PO PK study” (brain, 24 h, read-out: total brain concentration) was 2890 nM. This compound also came in with a Cmax in “rat PO PK study” (plasma) of 10300 nM. Besides, the Tmax in the data set “rat PO PK study” (plasma) amounted to 7 h. Also, the half-life in the data set “rat PO PK study” (plasma) is more than 24 h; in “dog IV PK study”, 22 h. The clearance in the data set “dog IV PK study” (read-out: CLp) worked out at 1.3 mL/min/kg. For the same compound, in “dog IV PK study” (read-out: Vss), the Vd was determined as 2.2 L/kg. Moreover, the results for the inhibition at 10 µM on Bradykinin B2 and at Endothelin ETB were 5% and 4%, respectively.
With `O=C(NCc1ccc(OC(F)(F)F)cc1Cl)c1ccc2nncn2c1` [Compound 20], on TREK-2, the pEC50 is 6.72 and the Emax came out at 142%.
